Reference: US20050159427A1, “N-acylsulfonamide apoptosis promoters” (priority 2003, published 2005)

What was measured:
NCI-H460 = experiment: Tumor cell viability (TABLE 1); assay type: cell-based; details: Homo sapiens, read-out: EC50 (50% reduction in cell viability); NCI-H460 (Non-Small Cell Lung); serum-free conditions, 48 hour treatment; mean ± SEM
NCI-H226 = experiment: Tumor cell viability (TABLE 1); assay type: cell-based; details: Homo sapiens, read-out: EC50 (50% reduction in cell viability); NCI-H226 (Non-Small Cell Lung); serum-free conditions, 48 hour treatment; mean ± SEM
HT-29 = experiment: Tumor cell viability (TABLE 1); assay type: cell-based; details: Homo sapiens, read-out: EC50 (50% reduction in cell viability); HT-29 (Colorectal); serum-free conditions, 48 hour treatment; mean ± SEM
KM12 = experiment: Tumor cell viability (TABLE 1); assay type: cell-based; details: Homo sapiens, read-out: EC50 (50% reduction in cell viability); KM12 (Colorectal); serum-free conditions, 48 hour treatment; mean ± SEM
HCT-116 = experiment: Tumor cell viability (TABLE 1); assay type: cell-based; details: Homo sapiens, read-out: EC50 (50% reduction in cell viability); HCT-116 (Colorectal); serum-free conditions, 48 hour treatment; mean ± SEM
MDA-MB-435 = experiment: Tumor cell viability (TABLE 1); assay type: cell-based; details: Homo sapiens, MDA-MB-435, 48 h, read-out: EC50 (50% reduction in cell viability)
MDA-MB-436 = experiment: Tumor cell viability (TABLE 1); assay type: cell-based; details: Homo sapiens, read-out: EC50 (50% reduction in cell viability); MDA-MB-436 (Breast); serum-free conditions, 48 hour treatment; mean ± SEM
T47D = experiment: Tumor cell viability (TABLE 1); assay type: cell-based; details: Homo sapiens, read-out: EC50 (50% reduction in cell viability); T47D (Breast); serum-free conditions, 48 hour treatment
NCI/ADR-RES = experiment: Tumor cell viability (TABLE 1); assay type: cell-based; details: Homo sapiens, read-out: EC50 (50% reduction in cell viability); NCI/ADR-RES (Breast); serum-free conditions, 48 hour treatment
U251 = experiment: Tumor cell viability (TABLE 1); assay type: cell-based; details: Homo sapiens, U-251, read-out: EC50 (50% reduction in cell viability); U251 (CNS); serum-free conditions, 48 hour treatment; mean ± SEM
SF-295 = experiment: Tumor cell viability (TABLE 1); assay type: cell-based; details: Homo sapiens, read-out: EC50 (50% reduction in cell viability); SF-295 (CNS); serum-free conditions, 48 hour treatment; mean ± SEM
U87MG = experiment: Tumor cell viability (TABLE 1); assay type: cell-based; details: Homo sapiens, U-87 MG, read-out: EC50 (50% reduction in cell viability); U87MG (Glioma); serum-free conditions, 48 hour treatment; mean ± SEM
LOX IMVI = experiment: Tumor cell viability (TABLE 1); assay type: cell-based; details: Homo sapiens, read-out: EC50 (50% reduction in cell viability); LOX IMVI (Melanoma); serum-free conditions, 48 hour treatment; mean ± SEM
SK-MEL-5 = experiment: Tumor cell viability (TABLE 1); assay type: cell-based; details: Homo sapiens, read-out: EC50 (50% reduction in cell viability); SK-MEL-5 (Melanoma); serum-free conditions, 48 hour treatment; mean ± SEM
OVCAR-4 = experiment: Tumor cell viability (TABLE 1); assay type: cell-based; details: Homo sapiens, read-out: EC50 (50% reduction in cell viability); OVCAR-4 (Ovarian); serum-free conditions, 48 hour treatment; mean ± SEM
PC3 [1] = experiment: Tumor cell viability (TABLE 1); assay type: cell-based; details: Homo sapiens, PC-3, read-out: EC50 (50% reduction in cell viability); PC3 (Prostate); serum-free conditions, 48 hour treatment; mean ± SEM
DU-145 = experiment: Tumor cell viability (TABLE 1); assay type: cell-based; details: Homo sapiens, read-out: EC50 (50% reduction in cell viability); DU-145 (Prostate); serum-free conditions, 48 hour treatment; mean ± SEM
786-0 = experiment: Tumor cell viability (TABLE 1); assay type: cell-based; details: Homo sapiens, read-out: EC50 (50% reduction in cell viability); 786-0 (Renal); serum-free conditions, 48 hour treatment; mean ± SEM
RXF-393 = experiment: Tumor cell viability (TABLE 1); assay type: cell-based; details: Homo sapiens, read-out: EC50 (50% reduction in cell viability); RXF-393 (Renal); serum-free conditions, 48 hour treatment; mean ± SEM
H146 = H146 small cell lung cancer murine model; assay type: in vivo
Description: (§1) (H146 and SCLC xenograft) from human-derived small cell lung cancer isolated from smokers and nonsmokers, defective for Rb/p53 gene function, and expresseive of moderately high levels of Bcl-2.

SCLC xenograft = experiment: Small cell lung cancer xenograft tumor model; assay type: in vivo, murine
Description: as §1

SuDHL4 = SuDHL4 model of B-cell follicular lymphoma; assay type: in vivo
PC3 [2] = experiment: PC3 derived murine model of prostate cancer; assay type: in vivo
[3] = test system: A549 human non-small cell lung carcinoma cells; experiment: Paclitaxel combination on A549 cells; assay type: cell-based; details: A549 cells
[4] = test system: PC-3 prostate carcinoma cells; experiment: Paclitaxel combination on PC-3 cells; assay type: cell-based
[5] = test system: human tumor cell lines derived from small cell lung carcinomas and lymphoid malignancies of both T-cell and B-cell origin; details: small cell lung carcinoma and T-cell / B-cell lymphoid malignancy cell lines
[6] = test system: acute lymphoblastoid leukemia, small cell lung cancer, prostate cancer, non-small cell lung cancer, and follicular lymphoma tumors (RS11380, DoHH2 and SuDHL-4); details: follicular lymphoma (RS11380, DoHH2, SuDHL-4)

Compound: CN(C)CC[C@H](CSc1ccccc1)Nc1ccc(S(=O)(=O)NC(=O)c2ccc(N3CCN(Cc4ccccc4-c4ccc(Cl)cc4)CC3)cc2)cc1[N+](=O)[O-] [EXAMPLE 2, N-(4-(4-((4′-chloro(1,1′-biphenyl)-2-yl)methyl)piperazin-1-yl)benzoyl)-4-(((1R)-3-(dimethylamino)-1-((phenylsulfanyl)methyl)propyl)amino)-3-nitrobenzenesulfonamide]
- EC50 (NCI-H460): 2300 ± 1500 nM
- EC50 (NCI-H226): 2600 ± 1100 nM
- EC50 (HT-29): 1100 ± 1100 nM
- EC50 (KM12): 1700 ± 200 nM
- EC50 (HCT-116): 2100 ± 1800 nM
- EC50 (MDA-MB-435): 2400 nM
- EC50 (MDA-MB-436): 3900 ± 2600 nM
- EC50 (T47D): > 10000 nM
- EC50 (NCI/ADR-RES): > 10000 nM
- EC50 (U251): 3800 ± 2000 nM
- EC50 (SF-295): 7700 ± 2300 nM
- EC50 (U87MG): 2700 ± 1800 nM
- EC50 (LOX IMVI): 1700 ± 400 nM
- EC50 (SK-MEL-5): 3700 ± 800 nM
- EC50 (OVCAR-4): 22000 ± 3000 nM
- EC50 (PC3 [1]): 960 ± 380 nM
- EC50 (DU-145): 8200 ± 1100 nM
- EC50 (786-0): 2900 ± 100 nM
- EC50 (RXF-393): 2900 ± 400 nM
- tumor regression (H146; H146 model, in some cases tumor disappearance after prolonged therapy): complete regression of an established tumor
- anti-tumor activity (H146; H146 murine model, human-derived small cell lung cancer): demonstrated anti-tumor activity
- anti-tumor activity (SCLC xenograft; SCLC xenograft murine model): demonstrated anti-tumor activity
- anti-tumor activity compared with paclitaxel (SCLC xenograft; paclitaxel near the maximum tolerated dose): equivalent to slightly better than paclitaxel
- anti-tumor activity compared with cisplatin and etoposide (SCLC xenograft; small cell lung cancer xenograft tumor model): superior to cisplatin and etoposide
- activity in follicular lymphoma model (SuDHL4): significant activity
- inhibition of tumor growth rate (PC3 [2]; PC3 derived murine model of prostate cancer): 40-50%
- therapeutic utility in prostate cancer model (PC3 [2]; mouse, in vivo): Therapeutic utility was also observed
- increase in efficacy of paclitaxel when administered with the compound [3]: about 4.4 fold
- increase in efficacy of paclitaxel when administered with the compound [4]: 4.7 fold
- therapeutic utility against human tumor cell lines [5]: displayed therapeutic utility
- therapeutic utility in xenograft models [6]: displayed therapeutic utility
